Source: BindingDB's records for patent US20250188057 (Merck Sharp & Dohme, 2025)
pIC50: −log10 of the molar value.

Target: T1, Ceramide glucosyltransferase (Homo sapiens, UniProt Q16739)
T1 sequence (Q16739 whole entry): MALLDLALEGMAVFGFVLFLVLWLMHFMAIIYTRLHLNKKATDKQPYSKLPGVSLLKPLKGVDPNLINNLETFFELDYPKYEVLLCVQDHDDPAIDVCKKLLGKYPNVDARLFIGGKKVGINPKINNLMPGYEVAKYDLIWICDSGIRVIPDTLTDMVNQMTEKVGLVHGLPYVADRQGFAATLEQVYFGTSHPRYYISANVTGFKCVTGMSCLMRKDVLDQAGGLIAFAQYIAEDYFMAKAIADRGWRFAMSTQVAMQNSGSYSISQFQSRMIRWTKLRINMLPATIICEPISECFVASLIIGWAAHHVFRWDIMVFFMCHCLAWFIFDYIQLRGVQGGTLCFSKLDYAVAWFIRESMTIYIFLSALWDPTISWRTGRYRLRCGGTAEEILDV
Experiment: UDP-Glo Glucosylceramide Synthase Biochemical Assay
Experimental: Using Promega's UDP-Glo™ Glycosyltransferase assay kit (Promega Corporation, Madison, WI, USA (Promega)), GCS activity was indirectly measured by detecting the amount of UDP produced. An aliquot of GCS enzyme (1.5 μg crude golgi preparation, total protein) and titrated test compound were aliquoted to each well and incubated for 30 minutes at room temperature. […] An equivalent volume of substrate mixture was then added to each well. Following a 20 h incubation at room temperature to allow for GCS turnover of substrate, an equal volume of UDP detection reagent (Promega) was added to each well and incubated for an additional 75 minutes at room temperature to simultaneously convert the accumulated UDP product into ATP and generate light in a luciferase reaction.

CN1C(=O)CC(COc2nc(C3CC3)ncc2C#N)C1c1cccc(Cl)c1 (stereo unspecified) [US20250188057, Compound 101]
pIC50: 5.50
